Laboratory results: article PMC6149849, “Cymantrenyl-Nucleobases: Synthesis, Anticancer, Antitrypanosomal and Antimicrobial Activity Studies” (Molecules : A Journal of Synthetic Chemistry and Natural …, 2017)

How the values were obtained:
[1] = tested on: SKOV-3 (ovarian adenocarcinoma); assay: MTT cytotoxicity assay, SKOV-3; type: cell-based, human
Protocol: (§3) Anticancer activity of cymantrenes was determined using a panel of human cancer cell lines that were derived from solid tumors. […] The inhibitory effect of cymantrene derivatives on cell proliferation and growth was determined based on survival curves and was expressed as IC50 values (concentration required to achieve a 50% decrease in cell viability when compared to the viability of untreated control cells) calculated using GraphPad Prism 4.02 software for Windows (GraphPad Software, San Diego, CA, USA). Cell viability was determined by the MTT microplate spectrophotometric cytotoxicity test.
(§4) Cells were grown as a monolayer in DMEM growth medium, supplemented with 10% FBS, penicillin (10 U/mL) and streptomycin (50 μg/mL), under standard conditions (37 °C, 5% CO2 and 95% air, 100% humidity) and periodically checked for Mycoplasma contamination.
(§5) The cytotoxicity of cymantrene derivatives was evaluated by the MTT microplate methods as described elsewhere [67] by incubating the cells with increasing concentrations of tested compounds for 24 h. Briefly, 0.1 mL of logarithmically growing cells were seeded in a 96-well microplate (5 × 10^4 cells/well) a day before the experiments and after 24 h of culture, tested compounds, dissolved in DMSO, and diluted in culture medium, were added. […] After further incubation for 24 h, the medium was replaced with fresh medium and the cells were allowed to grow for additional 48 h. Then, the medium was aspirated and 0.05 mL of MTT (final concentration of 5 mg/mL medium) added to each well, and the cells were incubated for further 4 h. The absorbance of the product, resulting from the MTT reduction, was read with a microplate reader at 545 nm. The percentage of viable cells was calculated by comparing the absorbance of treated cells with that of the untreated control cells (taken as 100%). The IC50 concentration of each compound was calculated from the cell survival curves using GraphPad Prism 4.02 software for Windows (GraphPad Software, San Diego, CA, USA).

[2] = tested on: MCF-7 (hormone-responsive breast adenocarcinoma); assay: MTT cytotoxicity assay, MCF-7; type: cell-based, human
Protocol: as §3, §4, §5

[3] = tested on: HepG2 (hepatocellular carcinoma); assay: MTT cytotoxicity assay, HepG2; type: cell-based, human
Protocol: as §3, §4, §5

[4] = tested on: U87-MG (glioblastoma); assay: MTT cytotoxicity assay, U87-MG; type: cell-based, human
Protocol: as §3, §4, §5

[5] = tested on: SKOV-3 cells; assay: Apoptotic/necrotic cell death, Hoechst 33258/propidium iodide staining, fluorescence microscopy; type: cell-based, human; conditions: SKOV-3, 24 h treatment with IC50 concentrations, post-treatment 24 and 48 h
Protocol: (§1) To determine the mode of cell death that was triggered by cymantrene derivatives, appropriately stained SKOV-3 cells were evaluated for morphological changes using fluorescence microscopy. For evaluation of apoptosis and autophagy, cells were stained with Hoechst 33258/propidium iodide to distinguish between live, apoptotic and necrotic cells and reveal condensed chromatin and apoptotic bodies (a hallmark of apoptosis), and with acridine orange to detect the development of acidic vesicular organelles (AVOs—a hallmark of autophagy).
(§2) One day prior to the experiments, cells were seeded at the appropriate density into 35 mm diameter dishes. […] At the end of incubation, the medium was aspirated, the cell monolayer was washed twice with pre-warmed PBS, and fresh medium was added. The cells were cultured in drug-free medium for an additional 24 or 48 h to enable them to recover after the exposure to the compounds and to repair any induced damages.
Quantitative analysis of morphological changes that are associated with apoptosis, necrosis, and autophagy were assessed using a fluorescence microscope (Olympus IX70, Tokyo, Japan) at 400× magnification, as described elsewhere. At the indicated time points, cells were washed with PBS, trypsinized, and centrifuged at 1000 rpm (fixed angle rotor, 72× g) for 5 min at 37 °C. The supernatant was removed and the cell pellet (100 µL) was transferred to the Eppendorf tube, mixed with Ho33258 (2 µL, 0.13 mM) and PI (2 µL, 0.23 mM), and incubated for 5 min in the dark at room temperature. At least 300 stained cells were counted in triplicate in each of the three independent experiments. Cells were classified as live, apoptotic, or necrotic on the basis of their morphological and staining characteristics, and each fraction was related to the total cell number.

[6] = tested on: SKOV-3 cells; assay: Autophagy (acidic vesicular organelles, AVOs), acridine orange staining; type: cell-based, human; conditions: SKOV-3, IC50 concentrations 24 h, then 0, 24 or 48 h drug-free
Protocol: as §1, §2
The ability of tested compounds to induce autophagosome formation inside cells (the process associated with the induction of autophagy) was evaluated by microscopic examination of the morphology of cells stained with acridine orange (AO).

[7] = tested on: bloodstream forms of T. brucei clone 427-221a; assay: Trypanocidal assay, resazurin viability assay; type: cell-based, Trypanosoma brucei
Procedure, shortened: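 Trypanosomes seeded at 10^4/mL and HL-60 at 5 × 10^4/mL with compound (final DMSO 0.9%), 37 °C, 5% CO2. After 24 h, resazurin added and cells incubated a further 48 h; absorbance 570 nm (reference 630 nm). GI50 by linear interpolation; MIC judged microscopically.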

[8] = tested on: human myeloid leukemia HL-60 cells; assay: in vitro
[9] = tested on: S. aureus ATCC 29213 (MSSA); assay: Antibacterial liquid microdilution (CLSI M07-A8); type: cell-based, Staphylococcus aureus; conditions: 18 to 24 h
[10] = tested on: S. aureus ATCC 43300 (MRSA); assay: Antibacterial liquid microdilution (CLSI M07-A8); type: cell-based, Staphylococcus aureus; conditions: 18 to 24 h
[11] = tested on: S. aureus ATCC 700787 (VISA); assay: Antibacterial liquid microdilution (CLSI M07-A8); type: cell-based, Staphylococcus aureus; conditions: 18 to 24 h
[12] = tested on: E. coli ATCC BAA-198 (ESBL); assay: Antibacterial liquid microdilution (CLSI M07-A8); type: cell-based, Escherichia coli; conditions: 18 to 24 h
[13] = ratio of cytotoxic (HL-60) to trypanocidal (T. brucei) activity

SMILES: COC(CCn1cnc2c(N(C)C)ncnc21)[C]12[CH]3[CH]4[CH]5[CH]1[Mn]4532.[C-]#[O+].[C-]#[O+].[C-]#[O+] (racemic) [Compound 6]
- IC50 [1]: 77.1 ± 3.86 µM
- IC50 [2]: 111 ± 3.57 µM
- IC50 [3]: 86.9 ± 2.34 µM
- IC50 [4]: 131 ± 3.53 µM
- increase of apoptotic cells compared to untreated control cells [5]: 6 fold
- induction of autophagy (cells containing AVOs) [6]: greatest autophagic changes
- GI50 ([7]; 50% growth inhibition): 26.1 ± 1.9 µM
- MIC ([7]; concentration at which all cells were killed, determined microscopically): 100 µM
- Selectivity GI50 Ratio [7, 13]: 3.6
- Selectivity MIC Ratio [7, 13]: >1
- GI50 [8]: 95.2 ± 44.4 µM
- HL-60 MIC [8]: >100 µM
- MIC, S. aureus ATCC 29213 (MSSA) [9]: >512 µg/mL
- MIC, S. aureus ATCC 43300 (MRSA) [10]: >512 µg/mL
- MIC, S. aureus ATCC 700787 (VISA) [11]: >512 µg/mL
- MIC, E. coli ATCC BAA-198 [12]: >512 µg/mL
